Columns and labels:
[1] = wn = mass fraction of the nth substance listed; details: 101 kPa, Liquid
[2] = mn = molality of the nth substance listed, in mol/kg; details: 101 kPa, Liquid

CO [methanol] + O
[1]
Details	mass density, 298.15 K [kg/m3]	mass density, 308.15 K [kg/m3]	mass density, 318.15 K [kg/m3]	mass density, 323.15 K [kg/m3]	viscosity, 298.15 K [mPa·s]	viscosity, 308.15 K [mPa·s]	viscosity, 318.15 K [mPa·s]	viscosity, 323.15 K [mPa·s]
w1 = 0.0806	982.97	979.73	976.04	974.38	1.084	0.8665	0.7017	0.6375
w1 = 0.1647	969.63	966.32	961.62	958.75	1.311	1.022	0.8075	0.73
w1 = 0.2526	956.2	951.6	946.26	943.31	1.471	1.142	0.8957	0.8052
w1 = 0.3446	939.57	933.64	931.4	928	1.448	1.203	0.9309	0.8288

CCCCCCCCCCCCOS(=O)(=O)[O-].[Na+] [sodium dodecyl sulfate] + O
[2]
Details	mass density [kg/m3]
298.15 K, m1 = 0.03036	998.33
298.15 K, m1 = 0.04026	998.74
298.15 K, m1 = 0.04734	999.03
298.15 K, m1 = 0.05935	999.5
298.15 K, m1 = 0.0771	1000.24
298.15 K, m1 = 0.08753	1000.63
298.15 K, m1 = 0.0992	1001.07
298.15 K, m1 = 0.1159	1001.71
308.15 K, m1 = 0.03046	995.13
308.15 K, m1 = 0.0404	995.48
308.15 K, m1 = 0.04749	995.73
308.15 K, m1 = 0.05955	996.13
308.15 K, m1 = 0.07737	996.76
308.15 K, m1 = 0.08785	997.09
308.15 K, m1 = 0.09957	997.46
308.15 K, m1 = 0.1163	997.99
318.15 K, m1 = 0.03059	991.17
318.15 K, m1 = 0.04056	991.47
318.15 K, m1 = 0.04769	991.69
318.15 K, m1 = 0.0598	992.03
318.15 K, m1 = 0.07771	992.57
318.15 K, m1 = 0.08824	992.85
318.15 K, m1 = 0.1	993.17
318.15 K, m1 = 0.1169	993.63
323.15 K, m1 = 0.03066	988.91
323.15 K, m1 = 0.04066	989.19
323.15 K, m1 = 0.0478	989.39
323.15 K, m1 = 0.05995	989.71
323.15 K, m1 = 0.0779	990.21
323.15 K, m1 = 0.08845	990.47
323.15 K, m1 = 0.1003	990.76
323.15 K, m1 = 0.1172	991.18

Source: the NIST ThermoML archive (doi:10.1021/je2003622)
